The source made the active and inactive calls. The rule behind the calls is not given here.
What was measured:
Assay type in all cases: functional
Trypanosoma cruzi [1] = experiment: In vitro percent inhibition of growth against epimastigote form of Trypanosoma cruzi (Tulahuen strain) at 25 uM
Trypanosoma cruzi [2] = experiment: In vitro inhibitory dose against epimastigote form of Trypanosoma cruzi Brener strain; details: read-out: ID50 (the source's name)
Trypanosoma cruzi [3] = experiment: In vitro inhibitory dose against epimastigote form of Trypanosoma cruzi Tulahuen strain; details: read-out: ID50 (the source's name)
[4] = target: T1, Glutathione reductase, mitochondrial (Homo sapiens) (UniProt P00390); experiment: In vitro inhibition against human glutathione reductase; IA denotes inactive
T1 sequence (whole entry): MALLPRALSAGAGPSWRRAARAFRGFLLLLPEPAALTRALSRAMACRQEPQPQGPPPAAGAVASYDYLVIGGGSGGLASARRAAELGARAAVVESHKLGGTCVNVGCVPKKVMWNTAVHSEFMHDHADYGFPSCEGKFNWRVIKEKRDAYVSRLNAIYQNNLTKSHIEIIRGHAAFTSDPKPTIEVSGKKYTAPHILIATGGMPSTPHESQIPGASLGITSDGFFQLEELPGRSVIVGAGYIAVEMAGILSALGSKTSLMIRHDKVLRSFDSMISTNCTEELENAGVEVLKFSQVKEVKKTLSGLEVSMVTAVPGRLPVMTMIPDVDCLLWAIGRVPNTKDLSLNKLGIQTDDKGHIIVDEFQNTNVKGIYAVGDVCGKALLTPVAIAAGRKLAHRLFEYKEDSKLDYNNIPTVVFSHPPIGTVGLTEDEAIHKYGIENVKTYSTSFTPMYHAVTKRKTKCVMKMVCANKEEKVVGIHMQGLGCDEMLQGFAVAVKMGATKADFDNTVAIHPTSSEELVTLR

COC(=O)N/N=C/c1ccc2c(c1)[n+]([O-])c1cc(C)c(C)cc1[n+]2[O-]
PGI (Trypanosoma cruzi [1]): 28%

Nc1nc(N)c2nc3ccccc3nc2n1
PGI (Trypanosoma cruzi [1]): 0%

N#Cc1cc2c(cc1N1CCN(c3cccc(C(F)(F)F)c3)CC1)[n+]([O-])c1ccc(Cl)cc1[n+]2[O-]
IC50 (Trypanosoma cruzi [2]): 7 µM | IC50 (Trypanosoma cruzi [3]): 6.7 µM | PGI (Trypanosoma cruzi [1]): 94%

COc1ccc2[nH]c3nnc(N)c-3nc2c1
PGI (Trypanosoma cruzi [1]): 0%

Cc1cc2c(cc1C)[n+]([O-])c1cc(NCCCN(C)C)c(C#N)cc1[n+]2[O-]
PGI (Trypanosoma cruzi [1]): 1%

Cc1cc2c(cc1C)[n+]([O-])c1cc(C(=O)N3CCN(c4ccc([N+](=O)[O-])cc4)CC3)c(C)cc1[n+]2[O-]
PGI (Trypanosoma cruzi [1]): 1%

Cc1ccc2c(c1)[n+]([O-])c1cc(C#N)c(N)cc1[n+]2[O-]
PGI (Trypanosoma cruzi [1]): 5%

CC(=O)c1cc2c(cc1C)[n+]([O-])c1cc(Cl)ccc1[n+]2[O-]
PGI (Trypanosoma cruzi [1]): 51%

CN(C)CCCNc1cc2c(cc1C#N)[n+]([O-])c1cc(Cl)ccc1[n+]2[O-]
PGI (Trypanosoma cruzi [1]): 16%

Cc1cc2nc3cc(Cl)c(C#N)cc3nc2cc1C
IC50 (Trypanosoma cruzi [2]): 3 µM | IC50 (Trypanosoma cruzi [3]): 19.6 µM | PGI (Trypanosoma cruzi [1]): 81%

N#Cc1cc2c(cc1N)[n+]([O-])c1cc(Cl)c(Cl)cc1[n+]2[O-]
PGI (Trypanosoma cruzi [1]): 25%

COCCNC(=O)N/N=C/c1ccc2c(c1)[n+]([O-])c1cc(C#N)c(N)cc1[n+]2[O-]
PGI (Trypanosoma cruzi [1]): 20%

CCN(CC)CCCC(C)Nc1c2ccc(Cl)cc2nc2ccc(OC)cc12 (stereo not drawn)
inhibition [4]: inactive

Cc1ccc(Nc2cc3c(cc2C#N)[n+]([O-])c2cc(Cl)ccc2[n+]3[O-])cc1
PGI (Trypanosoma cruzi [1]): 19%

COc1ccc2c(c1)[n+]([O-])c1cc(C#N)c(N3CCN(c4ccc([N+](=O)[O-])cc4)CC3)cc1[n+]2[O-]
PGI (Trypanosoma cruzi [1]): 19%

Cc1cc2c(cc1C)[n+]([O-])c1cc(C(=O)N3CCN(c4ccccc4)CC3)c(C)cc1[n+]2[O-]
PGI (Trypanosoma cruzi [1]): 0%

COc1ccccc1N1CCN(c2cc3c(cc2C#N)[n+]([O-])c2cc(Cl)ccc2[n+]3[O-])CC1
IC50 (Trypanosoma cruzi [2]): 9.5 µM | IC50 (Trypanosoma cruzi [3]): 6.5 µM | PGI (Trypanosoma cruzi [1]): 100%

CC1CS(=O)(=O)CCN1/N=C/c1ccc([N+](=O)[O-])o1 (stereo not drawn) [NIFURTIMOX]
IC50 (Trypanosoma cruzi [2]): 3.4 µM | IC50 (Trypanosoma cruzi [3]): 7.7 µM

N#Cc1cc2nc3cc(Cl)ccc3nc2cc1Cl
IC50 (Trypanosoma cruzi [2]): 3 µM | IC50 (Trypanosoma cruzi [3]): 4.5 µM | PGI (Trypanosoma cruzi [1]): 100%

Cc1ccc2nc3cc(N)c(C#N)cc3nc2c1
PGI (Trypanosoma cruzi [1]): 0%

COc1cc2c(cc1Cl)[n+]([O-])c1cc(N3CCN(c4ccc([N+](=O)[O-])cc4)CC3)c(C#N)cc1[n+]2[O-]
PGI (Trypanosoma cruzi [1]): 6%

Cc1cc2c(cc1C)[n+]([O-])c1cc(/C=N/NC(=O)NCCc3ccccc3)ccc1[n+]2[O-]
PGI (Trypanosoma cruzi [1]): 17%

N#Cc1cc2c(cc1Nc1ccccc1)[n+]([O-])c1ccc(Cl)cc1[n+]2[O-]
PGI (Trypanosoma cruzi [1]): 63%

N#Cc1cc2c(cc1N)[n+]([O-])c1ccc(/C=N/NC(=O)NCCc3ccccc3)cc1[n+]2[O-]
PGI (Trypanosoma cruzi [1]): 11%

COc1ccc2c(c1)[n+]([O-])c1cc(C#N)c(N)cc1[n+]2[O-]
PGI (Trypanosoma cruzi [1]): 25%

N#Cc1cc2c(cc1N)[n+]([O-])c1ccccc1[n+]2[O-]
PGI (Trypanosoma cruzi [1]): 25%

Cc1cc2c(cc1C(=O)c1ccccc1)[n+]([O-])c1cc(Cl)c(Cl)cc1[n+]2[O-]
IC50 (Trypanosoma cruzi [2]): 12.5 µM | IC50 (Trypanosoma cruzi [3]): 11.8 µM | PGI (Trypanosoma cruzi [1]): 91%

COC(=O)N/N=C/c1ccc2c(c1)[n+]([O-])c1cc(C#N)c(N)cc1[n+]2[O-]
PGI (Trypanosoma cruzi [1]): 19%

Cc1cc2c(cc1Sc1ccccc1)[n+]([O-])c1cc(Cl)c(Cl)cc1[n+]2[O-]
IC50 (Trypanosoma cruzi [2]): 4.5 µM | IC50 (Trypanosoma cruzi [3]): 6.5 µM | PGI (Trypanosoma cruzi [1]): 93%

N#Cc1cc2c(cc1N1CCN(c3ccc([N+](=O)[O-])cc3)CC1)[n+]([O-])c1ccc(Cl)cc1[n+]2[O-]
PGI (Trypanosoma cruzi [1]): 3%

Cc1cc2c(cc1C)[n+]([O-])c1cc(N3CCN(c4ccc([N+](=O)[O-])cc4)CC3)c(C#N)cc1[n+]2[O-]
PGI (Trypanosoma cruzi [1]): 0%

c1ccc(CNc2nc(NCc3ccccc3)c3nc4ccccc4nc3n2)cc1
PGI (Trypanosoma cruzi [1]): 31%

CC(=O)c1cc2c(cc1C)[n+]([O-])c1cc(F)ccc1[n+]2[O-]
PGI (Trypanosoma cruzi [1]): 22%

Cc1cc2c(cc1C(=O)N1CCN(c3ccccc3)CC1)[n+]([O-])c1cc(Cl)c(Cl)cc1[n+]2[O-]
PGI (Trypanosoma cruzi [1]): 47%

N#Cc1cc2c(cc1N1CCN(Cc3ccc4c(c3)OCO4)CC1)[n+]([O-])c1ccc(Cl)cc1[n+]2[O-]
PGI (Trypanosoma cruzi [1]): 33%

From ChEMBL document CHEMBL1146817, “Quinoxaline N,N'-dioxide derivatives and related compounds as growth inhibitors of Trypanosoma cruzi. Structure-activity relationships” (Bioorg Med Chem Lett, 2004)
